The format of this data set is physicochemical. The protocol: Insgesamt wurden 4.21 mg UDP-LacNAc isoliert (Gesamtausbeute: 5.2%). Die Substanz ist mindestens 6 Monate bei -20°C stabil. UDP-LacNAc wurde durch NMR-Spektroskopie und Massenspektrometrie charakterisiert. (Fig.1-4)

This is an account of results in patent EP1068346B1, “NUCLEOTIDE ACTIVATED DISACCHARIDES AND OLIGOSACCHARIDES AND METHOD FOR THE PRODUCTION THEREOF” (Forschungszentrum Jülich GmbH, priority 1998, dated 1999).

Consider Gal(β1-4)GlcNAc(α1-UDP [UDP-LacNAc], for which the stabil is given as at least 6 Monate.
